Drawing on patent publication US20240307419A1, “CONFORMATIONALLY-CONSTRAINED INHIBITORS OF 3C OR 3C-LIKE PROTEASES” (priority 2021, published 2024), this text covers CC50 and IC50 for 24 compounds.

A value given as a limit tells only on which side of the number the result lay.

One data set relates to CRFK cells.
Experiment: not given
The note with it: cat.
Consider `CC(C)C[C@H](NC(=O)OC1CC2(C1)CN(S(C)(=O)=O)C2)C(=O)N[C@H](C=O)C[C@H]1CCNC1=O` [Compound 4b, 2-(Methylsulfonyl)-2-azaspiro[3.3]heptan-6-yl ((S)-4-methyl-1-oxo-1-(((S)-1-oxo-3-((R)-2-oxopyrrolidin-3-yl)propan-2-yl)amino)pentan-2-yl)carbamate], for which the CC50 was greater than 100 µM.

`CC(C)C[C@H](NC(=O)OC1CC2(C1)CN(S(C)(=O)=O)C2)C(=O)N[C@@H](C[C@H]1CCNC1=O)C(O)S(=O)(=O)O` (stereo partly drawn) [Compound 4c, Sodium (2S)-1-hydroxy-2-((S)-4-methyl-2-((((2-(methylsulfonyl)-2-azaspiro[3.3]heptan-6-yl)oxy)carbonyl)amino)pentanamido)-3-((R)-2-oxopyrrolidin-3-yl)propane-1-sulfonate] returned a CC50 greater than 100 µM.

As to `CC(C)C[C@H](NC(=O)OC1CC2(CCN(C(=O)OC(C)(C)C)C2)C1)C(=O)N[C@H](C=O)C[C@H]1CCNC1=O` (stereo partly drawn) [Compound 5b, Tert-butyl 2-((((S)-4-methyl-1-oxo-1-(((S)-1-oxo-3-((R)-2-oxopyrrolidin-3-yl)propan-2-yl)amino)pentan-2-yl)carbamoyl)oxy)-6-azaspiro[3.4]octane-6-carboxylate], the CC50 is greater than 100 µM.

Consider `CC(C)C[C@H](NC(=O)OC1CC2(CCN(C(=O)OC(C)(C)C)C2)C1)C(=O)N[C@@H](C[C@H]1CCNC1=O)C(O)S(=O)(=O)O` (stereo partly drawn) [Compound 5c, Sodium (2S)-2-((S)-2-((((6-(tert-butoxycarbonyl)-6-azaspiro[3.4]octan-2-yl)oxy)carbonyl)amino)-4-methylpentanamido)-1-hydroxy-3-((R)-2-oxopyrrolidin-3-yl)propane-1-sulfonate], for which the CC50 is greater than 100 µM.

On to `CC(C)C[C@H](NC(=O)OC1CCC2(C1)CN(C(=O)OC(C)(C)C)C2)C(=O)N[C@H](C=O)C[C@H]1CCNC1=O` (stereo partly drawn) [Compound 6b, Tert-butyl 6-((((S)-4-methyl-1-oxo-1-(((S)-1-oxo-3-((R)-2-oxopyrrolidin-3-yl)propan-2-yl)amino)pentan-2-yl)carbamoyl)oxy)-2-azaspiro[3.4]octane-2-carboxylate], for which the CC50 is greater than 100 µM.

In turn, `CC(C)C[C@H](NC(=O)OC1CCC2(C1)CN(C(=O)OC(C)(C)C)C2)C(=O)N[C@@H](C[C@H]1CCNC1=O)C(O)S(=O)(=O)O` (stereo partly drawn) [Compound 6c, Sodium (2S)-2-((2S)-2-((((2-(tert-butoxycarbonyl)-2-azaspiro[3.4]octan-6-yl)oxy)carbonyl)amino)-4-methylpentanamido)-1-hydroxy-3-((R)-2-oxopyrrolidin-3-yl)propane-1-sulfonate] gave a CC50 greater than 100 µM.

`CC(C)C[C@H](NC(=O)OC1CC2(CCN(C(=O)C(C)C)CC2)C1)C(=O)N[C@H](C=O)C[C@H]1CCNC1=O` [Compound 8b, 7-Isobutyryl-7-azaspiro[3.5]nonan-2-yl ((S)-4-methyl-1-oxo-1-(((S)-1-oxo-3-((R)-2-oxopyrrolidin-3-yl)propan-2-yl)amino)pentan-2-yl)carbamate]: the CC50 is greater than 100 µM.

Compound `CC(C)C[C@H](NC(=O)OC1CC2(CCN(C(=O)C(C)C)CC2)C1)C(=O)N[C@@H](C[C@H]1CCNC1=O)C(O)S(=O)(=O)O` (stereo partly drawn) [Compound 8c, Sodium (2S)-1-hydroxy-2-((S)-2-((((7-isobutyryl-7-azaspiro[3.5]nonan-2-yl)oxy)carbonyl)amino)-4-methylpentanamido)-3-((R)-2-oxopyrrolidin-3-yl)propane-1-sulfonate] showed a CC50 greater than 100 µM.

Compound `CC(C)C[C@H](NC(=O)OC1CC2(CCN(C#N)CC2)C1)C(=O)N[C@H](C=O)C[C@H]1CCNC1=O` [Compound 11b, 7-Cyano-7-azaspiro[3.5]nonan-2-yl ((S)-4-methyl-1-oxo-1-(((S)-1-oxo-3-((R)-2-oxopyrrolidin-3-yl)propan-2-yl)amino)pentan-2-yl)carbamate] registered a CC50 greater than 100 µM.

As for `CC(C)C[C@H](NC(=O)OC1CC2(CCN(C#N)CC2)C1)C(=O)N[C@@H](C[C@H]1CCNC1=O)C(O)S(=O)(=O)O` (stereo partly drawn) [Compound 11c, Sodium (2S)-2-((S)-2-((((7-cyano-7-azaspiro[3.5]nonan-2-yl)oxy)carbonyl)amino)-4-methylpentanamido)-1-hydroxy-3-((R)-2-oxopyrrolidin-3-yl)propane-1-sulfonate], the CC50 is greater than 100 µM.

Regarding `CC(C)C[C@H](NC(=O)OC1CN(C(=O)OC(C)(C)C)C1)C(=O)N[C@H](C=O)C[C@H]1CCNC1=O` [Compound 12b, Tert-butyl 3-((((S)-4-methyl-1-oxo-1-(((S)-1-oxo-3-((R)-2-oxopyrrolidin-3-yl)propan-2-yl)amino)pentan-2-yl)carbamoyl)oxy)azetidine-1-carboxylate], the CC50 is greater than 100 µM.

`CC(C)C[C@H](NC(=O)OC1CN(C(=O)OC(C)(C)C)C1)C(=O)N[C@@H](C[C@H]1CCNC1=O)C(O)S(=O)(=O)O` (stereo partly drawn) [Compound 12c, Sodium (2S)-2-((S)-2-((((1-(tert-butoxycarbonyl)azetidin-3-yl)oxy)carbonyl)amino)-4-methylpentanamido)-1-hydroxy-3-((R)-2-oxopyrrolidin-3-yl)propane-1-sulfonate]: the cytotoxic concentration (CC50) is greater than 100 µM.

Compound `CC(C)C[C@H](NC(=O)OC1(C)CN(C(=O)OC(C)(C)C)C1)C(=O)N[C@H](C=O)C[C@H]1CCNC1=O` [Compound 13b, Tert-butyl 3-methyl-3-((((S)-4-methyl-1-oxo-1-(((S)-1-oxo-3-((R)-2-oxopyrrolidin-3-yl)propan-2-yl)amino)pentan-2-yl)carbamoyl)oxy)azetidine-1-carboxylate] showed a CC50 greater than 100 µM.

Regarding `CC(C)C[C@H](NC(=O)OC1(C)CN(C(=O)OC(C)(C)C)C1)C(=O)N[C@@H](C[C@H]1CCNC1=O)C(O)S(=O)(=O)O` (stereo partly drawn) [Compound 13c, Sodium (2S)-2-((S)-2-((((1-(tert-butoxycarbonyl)-3-methylazetidin-3-yl)oxy)carbonyl)amino)-4-methylpentanamido)-1-hydroxy-3-((R)-2-oxopyrrolidin-3-yl)propane-1-sulfonate], the CC50 is greater than 100 µM.

On to `CC(C)C[C@H](NC(=O)OCC1CN(C(=O)Cc2ccccc2)C1)C(=O)N[C@H](C=O)C[C@H]1CCNC1=O` [Compound 15b, (1-(2-Phenylacetyl)azetidin-3-yl)methyl ((S)-4-methyl-1-oxo-1-(((S)-1-oxo-3-((R)-2-oxopyrrolidin-3-yl)propan-2-yl)amino)pentan-2-yl)carbamate], for which the CC50 was greater than 100 µM.

Compound `CC(C)C[C@H](NC(=O)OCC1CN(C(=O)Cc2ccccc2)C1)C(=O)N[C@@H](C[C@H]1CCNC1=O)C(O)S(=O)(=O)O` (stereo partly drawn) [Compound 15c, Sodium (2S)-1-hydroxy-2-((S)-4-methyl-2-((((1-(2-phenylacetyl)azetidin-3-yl)methoxy)carbonyl)amino)pentanamido)-3-((R)-2-oxopyrrolidin-3-yl)propane-1-sulfonate] yielded a CC50 greater than 100 µM.

For `CC(C)C[C@H](NC(=O)OCC1CN(C(=O)C2CC3CCC2C3)C1)C(=O)N[C@H](C=O)C[C@H]1CCNC1=O` (stereo partly drawn) [Compound 16b, (1-(Bicyclo[2.2.1]heptane-2-carbonyl)azetidin-3-yl)methyl ((S)-4-methyl-1-oxo-1-(((S)-1-oxo-3-((R)-2-oxopyrrolidin-3-yl)propan-2-yl)amino)pentan-2-yl)carbamate], the CC50 was greater than 100 µM.

The next data set addresses SARS-CoV-2 3CLpro (Severe acute respiratory syndrome coronavirus 2 (2019-nCoV) (SARS-CoV-2), UniProt P0DTD1). Kind of data set: biochemical. In kind it is biochemical. The note with it: read-out: IC50.
`CCCCCC12CCC(COC(=O)N[C@@H](CC(C)C)C(=O)N[C@H](C=O)C[C@@H]3CCNC3=O)(CC1)CC2` [Compound 2i, (4-Pentylbicyclo[2.2.2]octan-1-yl)methyl ((S)-4-methyl-1-oxo-1-(((S)-1-oxo-3-((S)-2-oxopyrrolidin-3-yl)propan-2-yl)amino)pentan-2-yl)carbamate]: the IC50 is 0.27 ± 0.02 µM.

As for `CC(C)C[C@H](NC(=O)OCC12CC3CC(CC(C3)C1)C2)C(=O)N[C@H](C=O)C[C@H]1CCNC1=O` [Compound 2l, ((3S,5S,7S)-Adamantan-1-yl)methyl-d2 ((S)-4-methyl-1-oxo-1-(((S)-1-oxo-3-((S)-2-oxopyrrolidin-3-yl)propan-2-yl)amino)pentan-2-yl)carbamate], the IC50 worked out at 0.29 ± 0.04 µM.

Consider `CC(C)C[C@H](NC(=O)OC[C@@]12C[C@@H]3C[C@@H](C[C@@](O)(C3)C1)C2)C(=O)N[C@H](C=O)C[C@@H]1CCNC1=O` [Compound 2o, ((1r,3R,5R,7S)-3-Hydroxyadamantan-1-yl)methyl-d2 ((S)-4-methyl-1-oxo-1-(((S)-1-oxo-3-((S)-2-oxopyrrolidin-3-yl)propan-2-yl)amino)pentan-2-yl)carbamate], for which the IC50 was determined as 0.74 ± 0.26 µM.

For the compound `CCCCCC12CCC(COC(=O)N[C@@H](CC(C)C)C(=O)N[C@@H](C[C@@H]3CCNC3=O)C(O)S(=O)(=O)O)(CC1)CC2` (stereo partly drawn) [Compound 3i, Sodium (2S)-1-hydroxy-2-((S)-4-methyl-2-((((4-pentylbicyclo[2.2.2]octan-1-yl)methoxy)carbonyl)amino)pentanamido)-3-((S)-2-oxopyrrolidin-3-yl)propane-1-sulfonate], the IC50 stood at 0.3 ± 0.02 µM.

`[2H]C([2H])(OC(=O)N[C@@H](CC(C)C)C(=O)N[C@@H](C[C@@H]1CCNC1=O)C(O)S(=O)(=O)[O-])C12CCC(CCCCC)(CC1)CC2.[Na+]` (stereo partly drawn) [Compound 3j, Sodium (2S)-1-hydroxy-2-((S)-4-methyl-2-((((4-pentylbicyclo[2.2.2]octan-1-yl)methoxy-d2)carbonyl)amino)pentanamido)-3-((S)-2-oxopyrrolidin-3-yl)propane-1-sulfonate]: the IC50 came to 0.31 ± 0.06 µM.

As for `CC(C)C[C@H](NC(=O)OCC12CC3CC(CC(C3)C1)C2)C(=O)N[C@@H](C[C@H]1CCNC1=O)C(O)S(=O)(=O)O` (stereo partly drawn) [Compound 3l, Sodium (2S)-2-((S)-2-(((((3S,5S,7S)-adamantan-1-yl)methoxy-d2)carbonyl)amino)-4-methylpentanamido)-1-hydroxy-3-((S)-2-oxopyrrolidin-3-yl)propane-1-sulfonate], the IC50 was determined as 0.27 ± 0.04 µM.

`CC(C)C[C@H](NC(=O)OCC12CC3CC(CC(O)(C3)C1)C2)C(=O)N[C@@H](C[C@H]1CCNC1=O)C(O)S(=O)(=O)O` (stereo partly drawn) [Compound 3o, Sodium (2S)-1-hydroxy-2-((S)-2-(((((1r,3R,5R,7S)-3-hydroxyadamantan-1-yl)methoxy-d2)carbonyl)amino)-4-methylpentanamido)-3-((S)-2-oxopyrrolidin-3-yl)propane-1-sulfonate]: the IC50 turned out to be 0.78 ± 0.18 µM.

A word on the CC50: it is the concentration at which the toxic effect on the cells reaches its halfway point. The term IC50 denotes the concentration at which inhibition is half-maximal.
